# Experimental data from paper PMC6086659 (eLife, 2018).
# Target: T1, GABAA receptor β1 subunit (α1β1γ2SEM tri-heteromer) (Rattus norvegicus, UniProt P15431+P62813, P15431:DEL334-439/P15431:INS334GT/P62813:DEL340-408)
# T1 construct: gene Gabrb1; purified α1β1γ2SEM receptor-Fab complex (M3/M4 loop deletions in α1 and β1; full-length γ2S); with GABAA receptor α1 subunit (Gabra1, P62813) and γ2S subunit (Gabrg2, P18508); 8E3 Fab
# Assay: radioligand saturation binding (scintillation proximity assay)
# T1 sequence (P15431 with tags, fused parts or gaps DEL334-439/INS334GT): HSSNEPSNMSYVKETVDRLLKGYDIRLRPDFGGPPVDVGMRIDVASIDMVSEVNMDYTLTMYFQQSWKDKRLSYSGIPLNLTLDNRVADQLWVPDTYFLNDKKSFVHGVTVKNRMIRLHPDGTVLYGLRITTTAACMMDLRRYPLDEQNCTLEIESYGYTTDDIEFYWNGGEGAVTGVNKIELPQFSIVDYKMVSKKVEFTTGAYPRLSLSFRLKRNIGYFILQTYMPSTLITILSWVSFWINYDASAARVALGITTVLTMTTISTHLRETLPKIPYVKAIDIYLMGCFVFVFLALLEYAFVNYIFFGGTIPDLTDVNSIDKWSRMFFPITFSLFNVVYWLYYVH
# T1 sequence (P62813 with tags, fused parts or gaps DEL340-408): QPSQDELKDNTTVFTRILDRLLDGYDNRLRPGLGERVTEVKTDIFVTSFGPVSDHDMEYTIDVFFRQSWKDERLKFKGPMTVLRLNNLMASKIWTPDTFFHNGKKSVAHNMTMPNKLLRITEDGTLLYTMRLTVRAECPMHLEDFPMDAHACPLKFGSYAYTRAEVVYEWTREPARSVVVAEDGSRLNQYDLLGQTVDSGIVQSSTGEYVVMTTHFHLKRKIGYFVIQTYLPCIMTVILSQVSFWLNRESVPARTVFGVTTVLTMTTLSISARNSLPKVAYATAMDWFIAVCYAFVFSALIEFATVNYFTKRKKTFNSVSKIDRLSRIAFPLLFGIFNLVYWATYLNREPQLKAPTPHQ
# T1 sequence (P18508 39-466 partner): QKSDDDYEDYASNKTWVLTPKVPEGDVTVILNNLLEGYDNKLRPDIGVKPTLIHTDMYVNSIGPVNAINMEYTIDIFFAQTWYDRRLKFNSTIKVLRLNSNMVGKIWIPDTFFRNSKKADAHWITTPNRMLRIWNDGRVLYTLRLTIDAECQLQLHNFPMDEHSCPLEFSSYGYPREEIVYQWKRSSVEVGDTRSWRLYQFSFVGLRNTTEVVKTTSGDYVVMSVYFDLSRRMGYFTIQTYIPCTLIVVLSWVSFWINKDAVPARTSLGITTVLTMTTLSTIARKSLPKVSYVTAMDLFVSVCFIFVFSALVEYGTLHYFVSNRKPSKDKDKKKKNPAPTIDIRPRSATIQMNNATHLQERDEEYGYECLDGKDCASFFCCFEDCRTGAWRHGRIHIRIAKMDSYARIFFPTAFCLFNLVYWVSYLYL
smiles,measurement,value
NCc1cc(=O)[nH]o1 [muscimol],Kd,109 nM
